Test results from PubChem BioAssay (NCI).
Where “and” joins values, the source holds several entries; their conditions need not be identical. Equal values may be shown once.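 Cultured in 96-well plates, cells were exposed to test compound for 48 hours across five concentrations. GI50 marks 50% less growth. TGI marks complete inhibition of growth.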

What was measured:
Assay in all cases: inhibition of tumour cell growth, NCI panel, 48 h
[1] = system: SR leukemia
[2] = system: SK-OV-3 ovarian
[3] = system: KM12 colon
[4] = system: U251 CNS
[5] = system: MALME-3M melanoma
[6] = system: PC-3 prostate
[7] = system: OVCAR-8 ovarian
[8] = system: UO-31 renal
[9] = system: HL-60(TB) leukemia
[10] = system: HCC-2998 colon
[11] = system: SNB-19 CNS
[12] = system: UACC-62 melanoma

Row | Compound | TGI [1] | TGI [2] | TGI [3] | TGI [4] | TGI [5] | TGI [6] | TGI [7] | TGI [8] | TGI [9] | TGI [10] | TGI [11] | TGI [12] | GI50 [1] | GI50 [2] | GI50 [3] | GI50 [4] | GI50 [7] | GI50 [8] | GI50 [10] | GI50 [11]
1 | COc1ccc(/C(C)=C2\CCCN(Cc3ccccc3)C2)cc1 | 42.2 µM | 80.3 µM | 33.3 µM | 40.3 µM | 34.8 µM | 62.7 µM | 35.9 µM | 44.1 µM | 47.5 µM | 44.7 µM | 50.6 µM | 57.9 µM |  |  |  |  |  |  |  | 
2 | CSC12c3cc(C)n(-c4ccc(I)cc4)c3CC(C)(C)CN1C(=O)C2Oc1ccccc1 (stereo not drawn) | > 100 µM | > 100 µM | > 100 µM | > 100 µM | > 100 µM | > 100 µM | > 100 µM | > 100 µM | > 100 µM | > 100 µM | > 100 µM | > 100 µM |  |  |  |  |  |  |  | 
3 | O=C1c2ccccc2C(=O)c2c1oc1cc(O)c(Cl)cc21 | > 54.6 µM | 40 µM | 19.4 µM | 22.3 µM | 2.51 µM | 29.6 µM | 23.4 µM | 26.6 µM | 32.9 µM | 14.8 µM | 28 µM | 4.32 µM |  |  |  |  |  |  |  | 
4 | CC(C)CC(N)C(=O)NC(CNC(CCC(N)=O)C(=O)NC(CC(C)C)C(=O)NC(CC(C)C)C(=O)O)Cc1ccc2ccccc2c1 (stereo not drawn) | > 10 µM | > 10 µM | > 10 µM | > 10 µM | > 10 µM | > 10 µM | > 10 µM | > 10 µM | > 10 µM | > 10 µM | > 10 µM | > 10 µM |  |  |  |  |  |  |  | 
5 | c1ccc2c(c1)CCN1CCc3ccccc3C1C2 (stereo not drawn) | > 100 µM | > 100 µM | > 100 µM | > 100 µM | > 100 µM | > 100 µM | > 100 µM | 68.9 µM | > 100 µM | > 100 µM | > 100 µM | > 100 µM |  |  |  |  |  |  |  | 
6 | CNC(=O)O/N=C1\N(C)CN(c2ccccc2)C12CCN(CCCC(=O)c1ccc(F)cc1)CC2 | > 100 µM | > 100 µM | 81.7 µM | > 100 µM | 90.8 µM | > 100 µM | > 100 µM | > 100 µM | > 100 µM | > 100 µM | > 100 µM | > 100 µM |  |  |  |  |  |  |  | 
7 | COC(=O)CN1Cc2cc(C)cc(c2O)CN(CC(=O)OC)Cc2cc(C)cc(c2O)CN(CC(=O)OC)Cc2cc(C)cc(c2O)CN(CC(=O)OC)Cc2cc(C)cc(c2O)C1 | 50 µM and > 100 µM | 46.2 µM and > 100 µM | 50 µM and > 100 µM | 50 µM and > 100 µM | 50 µM | 50 µM and > 100 µM | 50 µM and > 100 µM | 50 µM and > 100 µM | 16 µM | 50 µM and > 100 µM | 50 µM and > 100 µM | > 100 µM | 18 µM | 35.3 µM | 50.2 µM | 30.9 µM | 18.7 µM | 33.8 µM | 25.2 µM | 18.3 µM
8 | CC(=O)NC1C(OCc2ccccc2)OC(CO)C(O)C1OCC(=O)NC(C(=O)NC(CCC(=O)NCCCCCC(=O)Nc1ccc2c(c1)CN1C(=O)c3ccccc3C1=N2)C(N)=O)C(C)C (stereo not drawn) | > 100 µM | 44.6 µM | 48.7 µM | 39.2 µM | 46.5 µM | 70.8 µM | 79.5 µM | > 100 µM | > 100 µM | > 100 µM | 47.7 µM | 40.9 µM |  |  |  |  |  |  |  | 
9 | O=[N+]([O-])C(C(Cl)=C(Cl)Cl)=C(N1CCCCC1)N1CCCCC1 | > 100 µM | > 100 µM | > 100 µM | > 100 µM | > 100 µM | > 100 µM | > 100 µM | > 100 µM | > 100 µM | > 100 µM | > 100 µM | > 100 µM |  |  |  |  |  |  |  | 
10 | CN(C)CCC(=O)[C@@]1(O)CC[C@H]2[C@@H]3CC=C4C[C@@H](O)CC[C@]4(C)[C@H]3CC[C@@]21C | 39.4 µM | > 66.8 µM | 45.3 µM | 31 µM | 28.8 µM | 26.2 µM | 40 µM | 31.7 µM | 37.7 µM | 60 µM | > 64.8 µM | 32.2 µM |  |  |  |  |  |  |  | 
